According to PubChem BioAssay (NCI):
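Five compound concentrations were applied to cells in 96-well plates for 48 hours; endpoints were derived by simple linear interpolation of the resulting dose-response curve. Here, GI50 denotes the concentration required for 50% inhibition of growth. TGI marks complete inhibition of growth.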

Legend:
Assay in all cases: NCI anticancer screen, dose series, 48 h; in the data active = GI50 below about 0.43 µM; inactive = the rest
786-0 renal = test system: 786-0 renal
A498 renal = test system: A498 renal
A549 NSCLC = test system: A549 NSCLC
ACHN renal = test system: ACHN renal
BT-549 breast = test system: BT-549 breast
CAKI-1 renal = test system: CAKI-1 renal
COLO 205 colon = test system: COLO 205 colon
DU-145 prostate = test system: DU-145 prostate
EKVX NSCLC = test system: EKVX NSCLC
HCC-2998 colon = test system: HCC-2998 colon
HCT-116 colon = test system: HCT-116 colon
HCT-15 colon = test system: HCT-15 colon
HOP-92 NSCLC = test system: HOP-92 NSCLC
HS 578T breast = test system: HS 578T breast
HT29 colon = test system: HT29 colon
IGROV1 ovarian = test system: IGROV1 ovarian
KM12 colon = test system: KM12 colon
LOX IMVI melanoma = test system: LOX IMVI melanoma
M14 melanoma = test system: M14 melanoma
MALME-3M melanoma = test system: MALME-3M melanoma
MCF7 breast = test system: MCF7 breast
MDA-MB-231 breast = test system: MDA-MB-231 breast
MDA-MB-435 = test system: MDA-MB-435
NCI-H226 lung = test system: NCI-H226 lung
NCI-H23 lung = test system: NCI-H23 lung
NCI-H460 lung = test system: NCI-H460 lung
NCI-H522 lung = test system: NCI-H522 lung
NCI/ADR-RES ovarian = test system: NCI/ADR-RES ovarian
OVCAR-3 ovarian = test system: OVCAR-3 ovarian
OVCAR-4 ovarian = test system: OVCAR-4 ovarian
OVCAR-5 ovarian = test system: OVCAR-5 ovarian
OVCAR-8 ovarian = test system: OVCAR-8 ovarian
PC-3 prostate = test system: PC-3 prostate
RPMI-8226 leukemia = test system: RPMI-8226 leukemia
RXF 393 renal = test system: RXF 393 renal
SF-268 CNS = test system: SF-268 CNS
SF-295 CNS = test system: SF-295 CNS
SF-539 CNS = test system: SF-539 CNS
SK-MEL-2 melanoma = test system: SK-MEL-2 melanoma
SK-MEL-28 melanoma = test system: SK-MEL-28 melanoma
SK-MEL-5 melanoma = test system: SK-MEL-5 melanoma
SK-OV-3 ovarian = test system: SK-OV-3 ovarian
SN12C renal = test system: SN12C renal
SNB-19 CNS = test system: SNB-19 CNS
SNB-75 CNS = test system: SNB-75 CNS
SW-620 colon = test system: SW-620 colon
T-47D breast = test system: T-47D breast
TK-10 renal = test system: TK-10 renal
U251 CNS = test system: U251 CNS
UACC-257 melanoma = test system: UACC-257 melanoma
UACC-62 melanoma = test system: UACC-62 melanoma
UO-31 renal = test system: UO-31 renal
HOP-62 NSCLC = test system: HOP-62 NSCLC
MOLT-4 leukemia = test system: MOLT-4 leukemia
SR leukemia = test system: SR leukemia
CCRF-CEM leukemia = test system: CCRF-CEM leukemia
HL-60(TB) leukemia = test system: HL-60(TB) leukemia
K-562 leukemia = test system: K-562 leukemia

Cc1[nH]c2ccccc2c1C1=CC(=O)C=CC1=O
inactive: GI50 (786-0 renal) 20.1 µM | GI50 (A498 renal) 14.5 µM | GI50 (A549 NSCLC) 21 µM | GI50 (ACHN renal) 3.63 µM | GI50 (BT-549 breast) 11.1 µM | GI50 (CAKI-1 renal) 5.66 µM | GI50 (COLO 205 colon) 2.48 µM | GI50 (DU-145 prostate) 13.4 µM | GI50 (EKVX NSCLC) 17.7 µM | GI50 (HCC-2998 colon) 15.7 µM | GI50 (HCT-116 colon) 10.5 µM | GI50 (HCT-15 colon) 10.9 µM | GI50 (HOP-92 NSCLC) 13 µM | GI50 (HS 578T breast) 8.86 µM | GI50 (HT29 colon) 13.6 µM | GI50 (IGROV1 ovarian) 12 µM | GI50 (KM12 colon) 12.2 µM | GI50 (LOX IMVI melanoma) 9.77 µM | GI50 (M14 melanoma) 13.6 µM | GI50 (MALME-3M melanoma) 7.45 µM | GI50 (MCF7 breast) 9.9 µM | GI50 (MDA-MB-231 breast) 12.9 µM | GI50 (MDA-MB-435) 5.04 µM | GI50 (NCI-H226 lung) 15.6 µM | GI50 (NCI-H23 lung) 13 µM | GI50 (NCI-H460 lung) 15.5 µM | GI50 (NCI-H522 lung) 1.66 µM | GI50 (NCI/ADR-RES ovarian) 10.9 µM | GI50 (OVCAR-3 ovarian) 2.16 µM | GI50 (OVCAR-4 ovarian) 4.2 µM | GI50 (OVCAR-5 ovarian) 17.7 µM | GI50 (OVCAR-8 ovarian) 13.2 µM | GI50 (PC-3 prostate) 12.7 µM | GI50 (RPMI-8226 leukemia) 11 µM | GI50 (RXF 393 renal) 10.6 µM | GI50 (SF-268 CNS) 13.1 µM | GI50 (SF-295 CNS) 16.4 µM | GI50 (SF-539 CNS) 14.3 µM | GI50 (SK-MEL-2 melanoma) 12.3 µM | GI50 (SK-MEL-28 melanoma) 14.1 µM | GI50 (SK-MEL-5 melanoma) 12 µM | GI50 (SK-OV-3 ovarian) 14.5 µM | GI50 (SN12C renal) 14.4 µM | GI50 (SNB-19 CNS) 16.6 µM | GI50 (SNB-75 CNS) 9.19 µM | GI50 (SW-620 colon) 4.55 µM | GI50 (T-47D breast) 2.65 µM | GI50 (TK-10 renal) 2.32 µM | GI50 (U251 CNS) 14.8 µM | GI50 (UACC-257 melanoma) 14.3 µM | GI50 (UACC-62 melanoma) 10.4 µM | GI50 (UO-31 renal) 10.5 µM
34.9 µM: TGI (OVCAR-8 ovarian)
42.2 µM: TGI (NCI-H460 lung)
25.3 µM: TGI (SK-MEL-5 melanoma)
15.3 µM: TGI (OVCAR-4 ovarian)
34.7 µM: TGI (SNB-75 CNS)
29.2 µM: TGI (MDA-MB-231 breast)
40 µM: TGI (A498 renal)
5.43 µM: TGI (COLO 205 colon)
41.6 µM: TGI (SNB-19 CNS)
28.9 µM: TGI (SK-MEL-2 melanoma)
24.4 µM: TGI (BT-549 breast)
31.5 µM: TGI (NCI-H23 lung)
33.5 µM: TGI (SK-OV-3 ovarian)
38.2 µM: TGI (RPMI-8226 leukemia)
22.3 µM: TGI (LOX IMVI melanoma)
12.5 µM: TGI (ACHN renal)
5.75 µM: TGI (T-47D breast)
5.85 µM: TGI (TK-10 renal)
30 µM: TGI (PC-3 prostate)
27.2 µM: TGI (IGROV1 ovarian)
22.9 µM: TGI (RXF 393 renal)
30.9 µM: TGI (NCI-H226 lung)
41 µM: TGI (SF-295 CNS)
22.6 µM: TGI (CAKI-1 renal)
27.8 µM: TGI (MALME-3M melanoma)
24.8 µM: TGI (HCT-116 colon)
32 µM: TGI (SN12C renal)
53.3 µM: TGI (HS 578T breast)
28.8 µM: TGI (MCF7 breast)
40.1 µM: TGI (HT29 colon)
26.8 µM: TGI (DU-145 prostate)
23.4 µM: TGI (UACC-62 melanoma)
23 µM: TGI (SW-620 colon)
25.5 µM: TGI (KM12 colon)
28.3 µM: TGI (SF-539 CNS)
26.3 µM: TGI (HOP-92 NSCLC)
23.5 µM: TGI (MDA-MB-435)
29.4 µM: TGI (HCC-2998 colon)
4.6 µM: TGI (OVCAR-3 ovarian)
3.28 µM: TGI (NCI-H522 lung)
28.4 µM: TGI (NCI/ADR-RES ovarian)
27.7 µM: TGI (M14 melanoma)
43.3 µM: TGI (786-0 renal)
32.8 µM: TGI (OVCAR-5 ovarian)
31.4 µM: TGI (U251 CNS)
63.9 µM: TGI (A549 NSCLC)
27.4 µM: TGI (SF-268 CNS) | TGI (SK-MEL-28 melanoma)
45 µM: TGI (EKVX NSCLC)
27.1 µM: TGI (HCT-15 colon)
28.6 µM: TGI (UACC-257 melanoma)
23.2 µM: TGI (UO-31 renal)

COc1cc(C2C(C(=O)OCc3ccccc3)=C(C)NC(C)=C2C(=O)OCc2ccccc2)cc(OC)c1OC
inactive: GI50 (786-0 renal) 1.46 µM | GI50 (A498 renal) 1.75 µM | GI50 (A549 NSCLC) 3.6 µM | GI50 (ACHN renal) 2.79 µM | GI50 (BT-549 breast) 3.3 µM | GI50 (CAKI-1 renal) 3.05 µM | GI50 (EKVX NSCLC) 2.81 µM | GI50 (HCT-116 colon) 2.54 µM | GI50 (HOP-62 NSCLC) 12.1 µM | GI50 (HOP-92 NSCLC) 3.08 µM | GI50 (HS 578T breast) 5.61 µM | GI50 (HT29 colon) 3.35 µM | GI50 (MCF7 breast) 2.66 µM | GI50 (MDA-MB-231 breast) 2.16 µM | GI50 (MOLT-4 leukemia) 1.31 µM | GI50 (NCI-H226 lung) 2.41 µM | GI50 (NCI-H460 lung) 3.54 µM | GI50 (NCI-H522 lung) 3.57 µM | GI50 (NCI/ADR-RES ovarian) 3.06 µM | GI50 (OVCAR-3 ovarian) 4.99 µM | GI50 (OVCAR-4 ovarian) 3.39 µM | GI50 (OVCAR-8 ovarian) 4.52 µM | GI50 (PC-3 prostate) 1.48 µM | GI50 (RPMI-8226 leukemia) 2.09 µM | GI50 (SF-268 CNS) 5.17 µM | GI50 (SF-295 CNS) 2.86 µM | GI50 (SF-539 CNS) 3.99 µM | GI50 (SK-OV-3 ovarian) 4.78 µM | GI50 (SNB-19 CNS) 5.73 µM | GI50 (SNB-75 CNS) 4.69 µM | GI50 (SR leukemia) 2.22 µM | GI50 (T-47D breast) 3.67 µM | GI50 (U251 CNS) 4.37 µM | GI50 (UACC-257 melanoma) 3.82 µM | GI50 (UACC-62 melanoma) 3.62 µM | GI50 (UO-31 renal) 2.22 µM
37.9 µM: TGI (HOP-92 NSCLC)
66.5 µM: TGI (HOP-62 NSCLC)
> 100 µM: TGI (786-0 renal) | TGI (A498 renal) | TGI (A549 NSCLC) | TGI (ACHN renal) | TGI (BT-549 breast) | TGI (CAKI-1 renal) | TGI (EKVX NSCLC) | TGI (HCT-116 colon) | TGI (HS 578T breast) | TGI (HT29 colon) | TGI (MCF7 breast) | TGI (MDA-MB-231 breast) | TGI (MOLT-4 leukemia) | TGI (NCI-H226 lung) | TGI (NCI-H460 lung) | TGI (NCI-H522 lung) | TGI (NCI/ADR-RES ovarian) | TGI (OVCAR-3 ovarian) | TGI (OVCAR-4 ovarian) | TGI (OVCAR-8 ovarian) | TGI (PC-3 prostate) | TGI (RPMI-8226 leukemia) | TGI (SF-268 CNS) | TGI (SF-295 CNS) | TGI (SF-539 CNS) | TGI (SK-OV-3 ovarian) | TGI (SNB-19 CNS) | TGI (SNB-75 CNS) | TGI (SR leukemia) | TGI (T-47D breast) | TGI (U251 CNS) | TGI (UACC-257 melanoma) | TGI (UACC-62 melanoma) | TGI (UO-31 renal)

Cc1ccc(-c2n[nH]c(=O)n2N2C(=O)C=CC2=O)cc1
> 100 µM: TGI (786-0 renal) | TGI (A498 renal) | TGI (A549 NSCLC) | TGI (BT-549 breast) | TGI (CAKI-1 renal) | TGI (CCRF-CEM leukemia) | TGI (COLO 205 colon) | TGI (DU-145 prostate) | TGI (EKVX NSCLC) | TGI (HCC-2998 colon) | TGI (HCT-116 colon) | TGI (HCT-15 colon) | TGI (HL-60(TB) leukemia) | TGI (HOP-62 NSCLC) | TGI (HS 578T breast) | TGI (HT29 colon) | TGI (IGROV1 ovarian) | TGI (K-562 leukemia) | TGI (M14 melanoma) | TGI (MALME-3M melanoma) | TGI (MCF7 breast) | TGI (MDA-MB-231 breast) | TGI (MDA-MB-435) | TGI (MOLT-4 leukemia) | TGI (NCI-H226 lung) | TGI (NCI-H23 lung) | TGI (NCI-H460 lung) | TGI (NCI-H522 lung) | TGI (NCI/ADR-RES ovarian) | TGI (OVCAR-3 ovarian) | TGI (OVCAR-4 ovarian) | TGI (OVCAR-5 ovarian) | TGI (OVCAR-8 ovarian) | TGI (PC-3 prostate) | TGI (RXF 393 renal) | TGI (SF-268 CNS) | TGI (SF-295 CNS) | TGI (SF-539 CNS) | TGI (SK-MEL-2 melanoma) | TGI (SK-MEL-5 melanoma) | TGI (SK-OV-3 ovarian) | TGI (SN12C renal) | TGI (SR leukemia) | TGI (T-47D breast) | TGI (TK-10 renal) | TGI (U251 CNS) | TGI (UACC-257 melanoma) | TGI (UACC-62 melanoma)
